Data on 87 sequences can be found in the OligoGym collection.

The series deals with IRF4. Particulars: ASO.

Where “and” joins values, the source holds several entries; their conditions need not be identical. Equal entries are not always repeated. After the bases stand the sugars from the 5' end (letter, count) and the backbone: PS all phosphorothioate, else s phosphorothioate and o phosphodiester by linkage. Methylation of C is not given here. e = 2'-O-(2-methoxyethyl) (MOE); k = constrained ethyl (cEt); d = 2'-deoxy (DNA)

With “AAGCAGTGATGTCAGG (sugars kkddddddddddkeke, PS)”, the target mRNA inhibition (MM.1R, 0.0625 µM) turned out to be 8%; the target mRNA inhibition (MM.1R, 0.25 µM) came out at 22%; the target mRNA inhibition (MM.1R, 1 µM) was 74% and 76% and 56%; the target mRNA inhibition (MM.1R, 4 µM) amounted to 87%.
Turning to CCAAAGGGTTCAGTGT (sugars k3 d10 k3, PS), the target mRNA inhibition (SK-MEL-28, 4 µM) came out at 26%.
As for AAACAGCCCACTGAGT (sugars k3 d10 k3, PS), the target mRNA inhibition (SK-MEL-28, 4 µM) was 11%.
With CAGAAATCACGAGGTT (sugars k3 d10 k3, PS), where the note is “MM.1R, 1 µM”, the target mRNA inhibition stood at 25%.
As for AGTATGAGAAACGGCC (sugars k3 d10 k3, PS), where the note is “SK-MEL-28, 4 µM”, the target mRNA inhibition is 62%.
GAAGCATTTTATCATC (sugars k3 d10 k3, PS): for the setting “MM.1R, 1 µM”, the target mRNA inhibition was found to be 4%.
For the sequence GCTCAATAATCTCCCA (sugars k3 d10 k3, PS), the target mRNA inhibition (MM.1R, 1 µM) came to 0%.
For the sequence “TGTGATAGCTGAGCTG (sugars kkdddddddddkdkdk, PS)”, the target mRNA inhibition (MM.1R, 1 µM) came out at 47%.
On to TCTGTAGGGCGACTAA (sugars k3 d10 k3, PS), for which the target mRNA inhibition (SK-MEL-28, 4 µM) amounted to 65%.
For the sequence CCATGGGAGATCCGGC (sugars k3 d10 k3, PS), the target mRNA inhibition (SK-MEL-28, 4 µM) stood at 54%.
For the sequence GACAGATGGCATGCGA (sugars k3 d10 k3, PS), the target mRNA inhibition (MM.1R, 1 µM) is 16%.
For CTTGCCGCTGTCGATC (sugars k4 d8 k4, PS), under “SK-MEL-28, 4 µM”, the target mRNA inhibition is 42%.
As for “AGTGTCTAAAGTCCCA (sugars kdddddddddkekeke, PS)”, the target mRNA inhibition (MM.1R, 1 µM) was -12% and 12%.
With ACACACCTGACAACCA (sugars k3 d10 k3, PS), the target mRNA inhibition (SK-MEL-28, 4 µM) came out at 36%.
As to “TGATGTGATAGCTGAG (sugars kkdddddddddekeke, PS)”, the target mRNA inhibition (MM.1R, 1 µM) was determined as 60%.
On to TTATAGTAGGTAAGAT (sugars k3 d10 k3, PS), for which the target mRNA inhibition (SK-MEL-28, 4 µM) came out at 2%.
For the sequence CGTGGAAACGAGAACG (sugars k3 d10 k3, PS), under “SK-MEL-28, 4 µM”, the target mRNA inhibition came to 29%.
Still for that read-out and setting: as for AGCCAACTTATAGCAC (sugars k3 d10 k3, PS), the figure is 54%.
For the sequence GAAAACTCTAACCCTA (sugars k3 d10 k3, PS), the target mRNA inhibition (SK-MEL-28, 4 µM) was 9%.
For the sequence “AGCAGTGATGTCAGGT (sugars kkdddddddddekeke, PS)”, the target mRNA inhibition reads like this: (MM.1R, 0.0625 µM) 32%; (MM.1R, 0.25 µM) 54%; (MM.1R, 1 µM) 72% and 70% and 69%; (MM.1R, 4 µM) 86%.
For the sequence TAATAGTAAGTTCTAG (sugars k3 d10 k3, PS), the target mRNA inhibition (SK-MEL-28, 4 µM) is 0%.
AGATACAAAACGGACT (sugars k3 d10 k3, PS): the target mRNA inhibition (MM.1R, 1 µM) was -15%.
On to TTCTAGGTAATCTGTA (sugars k3 d10 k3, PS), for which the target mRNA inhibition (SK-MEL-28, 4 µM) is 38%.
In the case of TCGGAGCGACCCAAAT (sugars k3 d10 k3, PS), under “MM.1R, 1 µM”, the target mRNA inhibition was found to be 12%.
Consider CGGTTAGCTCATCCCG (sugars k3 d10 k3, PS), for which the target mRNA inhibition (MM.1R, 1 µM) was 5%.
With GAAGAATAAACACCCC (sugars k3 d10 k3, PS), the target mRNA inhibition (SK-MEL-28, 4 µM) worked out at 52%.
In the case of ATGATATTAGAGACTG (sugars k3 d10 k3, PS), the target mRNA inhibition (SK-MEL-28, 4 µM) turned out to be 74%.
On the same count and under the same terms, the figure for CAAAAACTTGGGTCAC (sugars k3 d10 k3, PS) is 20%.
With AGCTAGCGCGCACTAA (sugars k3 d10 k3, PS), the target mRNA inhibition (MM.1R, 1 µM) was -8%.
Turning to TGGAACTCATAGGTGT (sugars k3 d10 k3, PS), the target mRNA inhibition (SK-MEL-28, 4 µM) was determined as 62%.
ATCCTGTAGTATGAGA (sugars k3 d10 k3, PS): the target mRNA inhibition (SK-MEL-28, 4 µM) was 45%.
In the case of CGCCCAGGACCCGGCT (sugars k3 d10 k3, PS), the target mRNA inhibition (MM.1R, 1 µM) is -1%.
For ATTTACTGTTACCGAT (sugars k3 d10 k3, PS), the target mRNA inhibition (SK-MEL-28, 4 µM) was found to be 29%.
AGGAATGGCGGATAGA (sugars k3 d10 k3, PS): the target mRNA inhibition (SK-MEL-28, 4 µM) worked out at 38%.
Same read-out and setting: the figure for TCTAATGGTGCTCCTA (sugars k3 d10 k3, PS) is 51%; for CAACAGTGCCAGAGCA (sugars k3 d10 k3, PS) it is 11%; for CTACATCTACTCCAGA (sugars k3 d10 k3, PS) it is 22%.
As for GGAACAAAAGGTTCCC (sugars k3 d10 k3, PS), the target mRNA inhibition (SK-MEL-28, 4 µM) was determined as 12%.
Turning to GCAAGCTATATTAAAG (sugars k3 d10 k3, PS), the target mRNA inhibition reads like this: (MM.1R, 0.0625 µM) 1%; (MM.1R, 0.074 µM) 17%; (MM.1R, 0.222 µM) 26%; (MM.1R, 0.25 µM) 1%; (MM.1R, 0.666 µM) 41%; (MM.1R, 1 µM) -19%. Moreover, the target mRNA inhibition runs as follows: (MM.1R, 2 µM) 82%; (MM.1R, 4 µM) 1%; (SK-MEL-28, 4 µM) 71%.
Regarding CGCCAGCGGGTGAGCA (sugars k3 d10 k3, PS), the target mRNA inhibition (MM.1R, 1 µM) came to 19%.
“CAAGCAGTGATGTCAG (sugars kkdddddddddkekek, PS)”: the target mRNA inhibition (MM.1R, 1 µM) is 51% and 52%.
As for GCAATGAACGGAAGTT (sugars k3 d10 k3, PS), the target mRNA inhibition (SK-MEL-28, 4 µM) worked out at 45%.
Turning to TATCAAGACAAGGAAT (sugars k3 d10 k3, PS), the target mRNA inhibition (SK-MEL-28, 4 µM) turned out to be 7%.
With “TGATGTGATAGCTGAG (sugars kddddddddddkekek, PS)”, where the note is “MM.1R, 1 µM”, the target mRNA inhibition was 18%.
For CTAGATAGCATTCTTA (sugars k3 d10 k3, PS), the target mRNA inhibition (SK-MEL-28, 4 µM) was found to be 39%.
As to GAGGAACTAGTCGACA (sugars k3 d10 k3, PS), the target mRNA inhibition (SK-MEL-28, 4 µM) came to 39%.
With GTTCCTTTTCAGAGTC (sugars k3 d10 k3, PS), the target mRNA inhibition (SK-MEL-28, 0.185 µM) is 16% and 4% and 3%; the target mRNA inhibition (SK-MEL-28, 4 µM) came to 72%.
Regarding TTACACTGGATCTGAA (sugars k3 d10 k3, PS), the target mRNA inhibition (SK-MEL-28, 4 µM) is 38%.
Same read-out and setting: the figure for TTCCAACAATAGCAAC (sugars k3 d10 k3, PS) is 46%; for GGCCTTAGCCTTCCTG (sugars k3 d10 k3, PS) it is 17%.
Still for that read-out and setting: the figure for GACCTTTACTTCATTC (sugars k3 d10 k3, PS) is 52%.
Regarding CAGTACAGTCCACTCC (sugars k3 d10 k3, PS), the target mRNA inhibition (MM.1R, 1 µM) amounted to 5%.
With GATCTCCATGGTGCAG (sugars k3 d10 k3, PS), the target mRNA inhibition (MM.1R, 1 µM) was 22% and 12%.
As for CCGCAGAGAGCTAGCA (sugars k3 d10 k3, PS), the target mRNA inhibition (SK-MEL-28, 4 µM) was -6%.
In the case of AAGGAGTGCAGGAGAG (sugars k3 d10 k3, PS), the target mRNA inhibition (SK-MEL-28, 4 µM) is 13%.
For the sequence GTCCTGCTTGCCCGCG (sugars k3 d10 k3, PS), where the note is “SK-MEL-28, 4 µM”, the target mRNA inhibition is 31%.
As to “AAGTTCATGTAAAGTC (sugars kkdddddddddekeke, PS)”, the target mRNA inhibition (MM.1R, 1 µM) was 34% and 29%.
For the sequence GCAAGTGGAGGTCTTT (sugars k3 d10 k3, PS), where the note is “SK-MEL-28, 4 µM”, the target mRNA inhibition is 74% and 79%.
Regarding GACATTACTAGATTGT (sugars k3 d10 k3, PS), where the note is “SK-MEL-28, 4 µM”, the target mRNA inhibition was 70%.
Turning to TTATGCCATGGACAAG (sugars k3 d10 k3, PS), the target mRNA inhibition (MM.1R, 1 µM) came to 19%.
In the case of TCTTTTTAGTTCATAC (sugars k3 d10 k3, PS), the target mRNA inhibition (SK-MEL-28, 4 µM) was found to be 26%.
Consider “TGGTTGGCTGGTCTTT (sugars kdddddddddkekeke, PS)”, for which the target mRNA inhibition (MM.1R, 1 µM) stood at 31%.
As for ACCCAAATGTGGAGCT (sugars k3 d10 k3, PS), the target mRNA inhibition (MM.1R, 1 µM) stood at 3%.
In the case of AAGAAGCAAGTCGGTC (sugars k3 d10 k3, PS), the target mRNA inhibition (SK-MEL-28, 4 µM) was 55%.
Take TAACGGTGTTTCAGAA (sugars k3 d10 k3, PS): where the note is “SK-MEL-28, 4 µM”, the target mRNA inhibition was determined as 26%.
Consider “TCTATAGTGTTCCAGG (sugars kddddddddddkekek, PS)”, for which, where the note is “MM.1R, 1 µM”, the target mRNA inhibition worked out at 16%.
With TGCTAGGACACAGCTG (sugars k3 d10 k3, PS), the target mRNA inhibition (SK-MEL-28, 4 µM) was found to be 43%.
Take TGGCATGCGAATGTGC (sugars k3 d10 k3, PS): the target mRNA inhibition (MM.1R, 1 µM) was -21%.
For the sequence AGGATAATATACCCCA (sugars k3 d10 k3, PS), where the note is “SK-MEL-28, 4 µM”, the target mRNA inhibition was 74%.
Same read-out and setting: the figure for GCGCGGAGGACCTCGC (sugars k3 d10 k3, PS) is 10%.
For AAGCCTAGAGGTGCCT (sugars k3 d10 k3, PS), the target mRNA inhibition (MM.1R, 1 µM) is 29%.
Turning to TACTAGATTGTAGGAC (sugars k3 d10 k3, PS), the target mRNA inhibition (SK-MEL-28, 4 µM) is 27%.
Take “CTGCTTGAGGTTTTCC (sugars kkkddddddddkekek, PS)”: the target mRNA inhibition (MM.1R, 1 µM) amounted to 26%.
In the case of GAGGTTTTCCTAAATA (sugars k3 d10 k3, PS), the target mRNA inhibition runs as follows: (SK-MEL-28, 0.185 µM) 20%; (SK-MEL-28, 4 µM) 69%; (SK-MEL-28, 5 µM) 75%; (SK-MEL-28, 15 µM) 89%.
Consider GACTAACTCTCCTGTT (sugars k3 d10 k3, PS), for which the target mRNA inhibition (SK-MEL-28, 4 µM) is 17%.
With GAAATGAACCCTAAGT (sugars k3 d10 k3, PS), the target mRNA inhibition (MM.1R, 1 µM) is -5%.
On to TGACATGCTTTGTCCT (sugars k3 d10 k3, PS), for which the target mRNA inhibition (SK-MEL-28, 4 µM) stood at 59%.
With CTTAAGCTAAACTCCT (sugars k3 d10 k3, PS), the target mRNA inhibition (SK-MEL-28, 4 µM) came out at 27%.
In the case of GGTCACAGGTAAGGGC (sugars k3 d10 k3, PS), the target mRNA inhibition (SK-MEL-28, 4 µM) was 25%.
Regarding GGAAAGACAAGTGCCC (sugars k3 d10 k3, PS), for the setting “SK-MEL-28, 4 µM”, the target mRNA inhibition stood at 54%.
Still for that read-out and setting: as for AGCTAGTTCATTCCCT (sugars k3 d10 k3, PS), the figure is 48%.
As for “AGCAGTGATGTCAGGT (sugars k2 d9 e3 k2, PS)”, under “MM.1R, 1 µM”, the target mRNA inhibition is 69% and 56%.
On the same count and under the same terms, the figure for CCCTCATCACCGAACA (sugars k3 d10 k3, PS) is -25%.
With AAGAGGCGACTGCTGA (sugars k3 d10 k3, PS), the target mRNA inhibition (SK-MEL-28, 4 µM) turned out to be 35%.
On to ACGGAAGTTTACACTG (sugars k3 d10 k3, PS), for which, under “SK-MEL-28, 4 µM”, the target mRNA inhibition turned out to be 77%.
In the case of TGAAAGACCCCAGCTA (sugars k3 d10 k3, PS), the target mRNA inhibition (SK-MEL-28, 4 µM) came to 4%.
In the case of GAGGGTCTGGAAACTC (sugars k4 d8 k4, PS), the target mRNA inhibition (SK-MEL-28, 4 µM) worked out at 8%.
